Measured values published in patent US9573953B2, “Heteroaromatic compounds as PI3 kinase modulators and methods of use” (CALITOR SCIENCES, LLC, priority 2013, dated 2017).
pIC50: −log10 of the molar value. Like-named read-outs stand apart in the source and are kept apart here.

How the values were obtained:
[1] = Compound stability in human liver microsomes; format: in vitro ADME; settings: for half-life at 5 μM / CLint scaled at 5 μM: pH 7.4; for CLint scaled at 5 μM: human liver microsomes, in vivo CLint extrapolated
Protocol: (§1) Human or rat liver microsomes incubations were conducted in duplicate in polypropylene tubes. The typical incubation mixtures consisted of human or rat liver microsomes (0.5 mg protein/mL), compounds of interest (5 μM) and NADPH (1.0 mM) in a total volume of 200 μL potassium phosphate buffer (PBS, 100 mM, pH=7.4). Compounds were dissolved in DMSO and diluted with PBS such that the final concentration of DMSO was 0.05%. The enzymatic reactions were commenced with the addition of protein after a 3-min preincubation and incubated in a water bath open to the air at 37° C. Reactions were terminated at various time points (0, 5, 10, 15, 30, 60 min) by adding equal volume of ice-cold acetonitrile. The samples were stored at −80° C. until LC/MS/MS assays.
(§2) The concentrations of compounds in the incubation mixtures of human or rat liver microsomes were determined by a LC/MS/MS method. The ranges of the linearity in the concentration range were determined for each tested compounds.
(§3) A parallel incubation was performed using denatured microsomes as the negative control, and reactions were terminated at various time points (0, 15, 60 min) after incubation at 37° C.
(§4) Dextromethorphan (70 μM) was selected as the positive control, and reactions were terminated at various time points (0, 5, 10, 15, 30, 60 min) after incubation at 37° C. Both positive and negative control samples were included in each assay to ensure the integrity of the microsomal incubation system.
(§5) The concentrations of compounds in human or rat liver microsome incubations were plotted as a percentage of the relevant zero time point control for each reaction. The in vivo CLint were extrapolated (ref.: Naritomi Y, Terashita S, Kimura S, Suzuki A, Kagayama A, Sugiyama Y. “Prediction of human hepatic clearance from in vivo animal experiments and in vitro metabolic studies with liver microsomes from animals and humans”, Drug Metabolism and Disposition, 2001, 29, 1316-1324).

[2] = Compound stability in rat liver microsomes; format: in vitro ADME; settings: for half-life at 5 μM / CLint scaled at 5 μM: pH 7.4; for half-life at 5 μM / T1/2: rat liver microsomes 0.5 mg protein/mL, compound 5 μM, NADPH, 37° C.; for CLint scaled at 5 μM: rat liver microsomes, in vivo CLint extrapolated
Protocol: as §1, §2, §3, §4, §5

[3] = Pharmacokinetic profiles in rats; format: in vivo; settings: for F: oral dose generally 5 or 10 mg/kg; for Cl/F / AUC(0-t) / half-life / Vd: iv dosing; for AUC(0-t) / half-life / Vd: rat, plasma; for Vd: read-out: Vss
Protocol: The compounds disclosed herein are assessed in pharmacokinetic studies in mice, rats, dogs or monkeys. The compounds are administered as a water solution, 2% HPMC+1% TWEEN®80 in water solution, 5% DMSO+5% solutol in saline, 4% MC suspension or capsule. For the intravenous administration, the animals are generally given at 1 or 2 mg/kg dose. For the oral (p.o.) dosing, mice and rats are generally given 5 or 10 mg/kg dose, and dogs and monkeys are generally given 10 mg/kg dose. The blood samples (0.3 mL) are drawn at 0.25, 0.5, 1.0, 2.0, 3.0, 4.0, 6.0, 8.0, 12 and 24 h time points or 0.083, 0.25, 0.5, 1.0, 2.0, 4.0, 6.0, 8.0 and 24 h time points and centrifuged at 3,000 or 4000 rpm for 2 to 10 min. The plasma solutions are collected and stored at −20° C. or −70° C. until analyzed by LC/MS/MS as described above.

mTOR (h) = biological target: T1, mTOR (h) (Homo sapiens, UniProt P42345); assay: mTOR (h) kinase assay; format: biochemical
T1 construct: purchased Millipore UK Ltd (assays run there as a service)
Protocol: mTOR (h) is incubated with 50 mM HEPES pH 7.5, 1 mM EDTA, 0.01% TWEEN®20, 2 mg/mL substrate, 3 mM Manganese Chloride and [γ-^33P-ATP] (specific activity approx. 500 cpm/pmol, concentration as required). The reaction is initiated by the addition of the MnATP mix. After incubation for 40 minutes at room temperature, the reaction is stopped by the addition of 3% phosphoric acid solution. Aliquote of the reaction (10 μL) is then spotted onto a P30 filtermat and washed three times for 5 minutes in 75 mM phosphoric acid and once in methanol prior to drying and scintillation counting.
(§6) The kinase assays described herein were performed at Millipore UK Ltd, Dundee Technology Park, Dundee DD2 1SW, UK.

PI3K p110α/p85α (h) = biological target: T2, PI3K p110α/p85α (h) (Homo sapiens, UniProt P42336); assay: PI3K p110α/p85α (h) non-radioactive (HTRF) assay; format: biochemical
T2 construct: purchased Millipore UK Ltd (assays run there as a service)
T2 sequence (P42336 whole entry): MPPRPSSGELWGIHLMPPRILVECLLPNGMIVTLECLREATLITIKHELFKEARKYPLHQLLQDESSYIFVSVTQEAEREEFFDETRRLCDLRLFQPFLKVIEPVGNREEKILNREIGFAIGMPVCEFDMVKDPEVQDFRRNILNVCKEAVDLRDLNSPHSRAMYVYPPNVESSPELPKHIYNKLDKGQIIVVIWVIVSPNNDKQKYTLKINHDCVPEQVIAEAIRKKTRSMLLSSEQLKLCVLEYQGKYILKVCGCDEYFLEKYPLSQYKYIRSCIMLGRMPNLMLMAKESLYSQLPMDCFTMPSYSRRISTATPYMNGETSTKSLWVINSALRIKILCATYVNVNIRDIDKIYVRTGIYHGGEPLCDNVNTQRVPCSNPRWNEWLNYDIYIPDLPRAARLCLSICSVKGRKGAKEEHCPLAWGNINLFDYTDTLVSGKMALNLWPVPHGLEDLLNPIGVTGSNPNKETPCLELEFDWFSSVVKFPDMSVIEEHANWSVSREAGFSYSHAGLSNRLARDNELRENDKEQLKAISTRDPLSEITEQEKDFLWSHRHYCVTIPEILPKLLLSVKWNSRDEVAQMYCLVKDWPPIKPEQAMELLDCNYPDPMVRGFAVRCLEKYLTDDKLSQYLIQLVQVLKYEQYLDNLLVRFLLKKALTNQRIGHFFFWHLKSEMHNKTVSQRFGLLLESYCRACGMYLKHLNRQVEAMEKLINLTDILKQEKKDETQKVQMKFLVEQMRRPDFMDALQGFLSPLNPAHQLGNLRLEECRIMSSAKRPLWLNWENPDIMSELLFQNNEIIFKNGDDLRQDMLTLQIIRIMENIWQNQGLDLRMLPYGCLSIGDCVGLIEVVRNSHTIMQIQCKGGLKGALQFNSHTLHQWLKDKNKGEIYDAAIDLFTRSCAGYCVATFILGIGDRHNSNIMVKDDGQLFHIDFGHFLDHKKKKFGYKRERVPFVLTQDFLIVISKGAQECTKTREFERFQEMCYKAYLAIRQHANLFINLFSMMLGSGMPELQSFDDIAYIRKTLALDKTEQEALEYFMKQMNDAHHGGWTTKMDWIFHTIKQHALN
T2 sequence (P27986 whole entry partner): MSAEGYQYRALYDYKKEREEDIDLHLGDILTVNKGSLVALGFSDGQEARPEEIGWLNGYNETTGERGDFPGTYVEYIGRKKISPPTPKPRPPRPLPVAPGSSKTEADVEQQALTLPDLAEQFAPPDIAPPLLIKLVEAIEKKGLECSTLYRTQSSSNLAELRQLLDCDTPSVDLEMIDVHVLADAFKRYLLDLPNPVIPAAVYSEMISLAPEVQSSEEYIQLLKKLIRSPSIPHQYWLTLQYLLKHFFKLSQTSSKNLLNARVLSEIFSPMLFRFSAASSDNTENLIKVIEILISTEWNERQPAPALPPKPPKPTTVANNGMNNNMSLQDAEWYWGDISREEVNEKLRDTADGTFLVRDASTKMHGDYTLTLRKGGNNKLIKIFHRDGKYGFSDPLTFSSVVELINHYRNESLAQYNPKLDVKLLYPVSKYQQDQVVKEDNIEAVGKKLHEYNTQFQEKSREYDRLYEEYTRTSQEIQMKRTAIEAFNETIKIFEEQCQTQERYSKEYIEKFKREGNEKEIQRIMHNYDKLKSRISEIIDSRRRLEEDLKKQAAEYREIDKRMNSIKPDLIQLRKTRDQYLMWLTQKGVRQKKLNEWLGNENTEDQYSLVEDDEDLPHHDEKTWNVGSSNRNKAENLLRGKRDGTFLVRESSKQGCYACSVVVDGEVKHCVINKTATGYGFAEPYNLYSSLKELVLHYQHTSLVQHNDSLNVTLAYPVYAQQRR
Protocol: PI3K p110α/p85α (h) [Non-Radioactive Assay]
(§7) PI3K p110α/p85α (h) is incubated in assay buffer containing 10 μM phosphatidylinositol 4,5-bisphosphate and MgATP (concentration as required). The reaction is initiated by the addition of the ATP solution. After incubation for 30 minutes at room temperature, the reaction is stopped by the addition of stop solution containing EDTA and biotinylated phosphatidylinositol-3,4,5-trisphosphate. Finally, detection buffer is added, which contains europium-labelled anti-GST monoclonal antibody, GST-tagged GRP1 PH domain and streptavidin allophycocyanin. The plate is then read in time-resolved fluorescence mode and the homogenous time-resolved fluorescence (HTRF) signal is determined according to the formula HTRF=10000×(Em665 nm/Em620 nm).
as §6

PI3K p110β/p85α (h) = biological target: T3, PI3K p110β/p85α (h) (Homo sapiens, UniProt P42338); assay: PI3K p110β/p85α (h) non-radioactive (HTRF) assay; format: biochemical
T3 construct: purchased Millipore UK Ltd (assays run there as a service)
T3 sequence (P42338 whole entry): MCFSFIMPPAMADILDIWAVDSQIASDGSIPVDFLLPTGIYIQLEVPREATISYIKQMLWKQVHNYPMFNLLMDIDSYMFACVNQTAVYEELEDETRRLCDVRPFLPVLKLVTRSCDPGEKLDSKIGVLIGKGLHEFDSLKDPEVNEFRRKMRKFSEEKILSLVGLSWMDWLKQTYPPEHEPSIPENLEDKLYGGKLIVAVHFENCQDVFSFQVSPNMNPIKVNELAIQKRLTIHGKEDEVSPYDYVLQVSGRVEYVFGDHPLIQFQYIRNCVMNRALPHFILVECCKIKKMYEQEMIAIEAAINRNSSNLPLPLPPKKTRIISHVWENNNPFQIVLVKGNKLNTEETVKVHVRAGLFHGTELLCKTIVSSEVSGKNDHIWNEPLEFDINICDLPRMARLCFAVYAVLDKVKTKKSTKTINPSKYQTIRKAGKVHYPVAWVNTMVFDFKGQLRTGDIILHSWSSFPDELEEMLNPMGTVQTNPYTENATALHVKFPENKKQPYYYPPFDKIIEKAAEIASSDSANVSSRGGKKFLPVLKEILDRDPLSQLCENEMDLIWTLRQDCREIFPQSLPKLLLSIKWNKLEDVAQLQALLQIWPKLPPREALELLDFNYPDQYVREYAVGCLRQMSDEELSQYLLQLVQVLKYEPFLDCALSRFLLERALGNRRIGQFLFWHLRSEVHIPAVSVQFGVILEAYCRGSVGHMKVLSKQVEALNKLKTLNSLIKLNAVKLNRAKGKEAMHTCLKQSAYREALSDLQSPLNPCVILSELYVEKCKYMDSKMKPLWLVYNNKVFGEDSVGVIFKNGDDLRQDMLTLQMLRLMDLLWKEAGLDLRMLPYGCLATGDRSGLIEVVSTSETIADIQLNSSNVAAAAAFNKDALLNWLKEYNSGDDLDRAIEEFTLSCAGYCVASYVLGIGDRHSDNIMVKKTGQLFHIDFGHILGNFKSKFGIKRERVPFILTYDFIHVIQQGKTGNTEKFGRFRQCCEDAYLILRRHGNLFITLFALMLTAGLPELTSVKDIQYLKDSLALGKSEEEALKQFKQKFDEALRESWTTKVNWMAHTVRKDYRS
T3 sequence (P27986 whole entry partner): as the sequence (P27986 whole entry partner) above
Protocol: PI3K p110β/p85α (h) [Non-Radioactive Assay]
as §7, with “(p110β/p85α)” for “p110α/p85α”, “phosphatidylinositol-4,5-bisphosphate” for “phosphatidylinositol 4,5-bisphosphate”, “MgATP mix.” for “ATP solution.”, “streptavidin-allophycocyanin.” for “streptavidin allophycocyanin.”
as §6

PI3K (p110δ/p85α) (h) = biological target: T4, PI3K (p110δ/p85α) (h) (Homo sapiens, UniProt O00329); assay: PI3K (p110δ/p85α) (h) non-radioactive (HTRF) assay; format: biochemical
T4 construct: purchased Millipore UK Ltd (assays run there as a service)
T4 sequence (O00329 whole entry): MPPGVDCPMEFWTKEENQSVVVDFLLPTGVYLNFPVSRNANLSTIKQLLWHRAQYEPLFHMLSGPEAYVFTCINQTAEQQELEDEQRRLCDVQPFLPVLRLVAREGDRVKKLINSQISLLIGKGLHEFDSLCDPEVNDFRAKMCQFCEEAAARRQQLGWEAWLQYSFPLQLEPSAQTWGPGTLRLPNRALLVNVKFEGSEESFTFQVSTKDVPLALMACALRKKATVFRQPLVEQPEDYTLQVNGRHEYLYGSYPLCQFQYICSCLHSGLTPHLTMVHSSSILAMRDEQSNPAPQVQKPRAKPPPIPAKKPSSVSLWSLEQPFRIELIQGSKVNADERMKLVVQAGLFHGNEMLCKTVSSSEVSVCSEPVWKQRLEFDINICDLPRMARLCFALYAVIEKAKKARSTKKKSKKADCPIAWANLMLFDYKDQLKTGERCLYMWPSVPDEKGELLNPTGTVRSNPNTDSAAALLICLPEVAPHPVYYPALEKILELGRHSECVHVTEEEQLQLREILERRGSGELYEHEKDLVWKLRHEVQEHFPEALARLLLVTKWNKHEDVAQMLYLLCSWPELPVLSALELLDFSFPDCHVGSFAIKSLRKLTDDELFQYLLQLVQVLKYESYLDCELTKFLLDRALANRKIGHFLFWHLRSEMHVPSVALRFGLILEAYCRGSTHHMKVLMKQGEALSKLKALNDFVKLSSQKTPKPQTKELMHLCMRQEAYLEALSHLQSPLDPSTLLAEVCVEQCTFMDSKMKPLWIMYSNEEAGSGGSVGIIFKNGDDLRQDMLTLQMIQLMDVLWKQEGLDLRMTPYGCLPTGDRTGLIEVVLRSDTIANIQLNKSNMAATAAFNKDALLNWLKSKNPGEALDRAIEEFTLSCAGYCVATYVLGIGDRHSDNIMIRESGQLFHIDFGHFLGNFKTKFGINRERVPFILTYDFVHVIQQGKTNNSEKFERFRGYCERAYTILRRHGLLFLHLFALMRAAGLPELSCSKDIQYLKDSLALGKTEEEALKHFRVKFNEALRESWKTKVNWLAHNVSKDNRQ
T4 sequence (P27986 whole entry partner): as the sequence (P27986 whole entry partner) above
Protocol: PI3K (p110δ/p85α) (h) [Non-Radioactive Assay]
as §7, with “(p110δ/p85α)” for “p110α/p85α”, “phosphatidylinositol-4,5-bisphosphate” for “phosphatidylinositol 4,5-bisphosphate”, “MgATP mix.” for “ATP solution.”, “streptavidin-allophycocyanin.” for “streptavidin allophycocyanin.”
as §6

PI3K (p120γ) (h) = biological target: T5, PI3K (p120γ) (h) (Homo sapiens, UniProt P48736); assay: PI3K (p120γ) (h) non-radioactive (HTRF) assay; format: biochemical
T5 construct: purchased Millipore UK Ltd (assays run there as a service)
T5 sequence (P48736 whole entry): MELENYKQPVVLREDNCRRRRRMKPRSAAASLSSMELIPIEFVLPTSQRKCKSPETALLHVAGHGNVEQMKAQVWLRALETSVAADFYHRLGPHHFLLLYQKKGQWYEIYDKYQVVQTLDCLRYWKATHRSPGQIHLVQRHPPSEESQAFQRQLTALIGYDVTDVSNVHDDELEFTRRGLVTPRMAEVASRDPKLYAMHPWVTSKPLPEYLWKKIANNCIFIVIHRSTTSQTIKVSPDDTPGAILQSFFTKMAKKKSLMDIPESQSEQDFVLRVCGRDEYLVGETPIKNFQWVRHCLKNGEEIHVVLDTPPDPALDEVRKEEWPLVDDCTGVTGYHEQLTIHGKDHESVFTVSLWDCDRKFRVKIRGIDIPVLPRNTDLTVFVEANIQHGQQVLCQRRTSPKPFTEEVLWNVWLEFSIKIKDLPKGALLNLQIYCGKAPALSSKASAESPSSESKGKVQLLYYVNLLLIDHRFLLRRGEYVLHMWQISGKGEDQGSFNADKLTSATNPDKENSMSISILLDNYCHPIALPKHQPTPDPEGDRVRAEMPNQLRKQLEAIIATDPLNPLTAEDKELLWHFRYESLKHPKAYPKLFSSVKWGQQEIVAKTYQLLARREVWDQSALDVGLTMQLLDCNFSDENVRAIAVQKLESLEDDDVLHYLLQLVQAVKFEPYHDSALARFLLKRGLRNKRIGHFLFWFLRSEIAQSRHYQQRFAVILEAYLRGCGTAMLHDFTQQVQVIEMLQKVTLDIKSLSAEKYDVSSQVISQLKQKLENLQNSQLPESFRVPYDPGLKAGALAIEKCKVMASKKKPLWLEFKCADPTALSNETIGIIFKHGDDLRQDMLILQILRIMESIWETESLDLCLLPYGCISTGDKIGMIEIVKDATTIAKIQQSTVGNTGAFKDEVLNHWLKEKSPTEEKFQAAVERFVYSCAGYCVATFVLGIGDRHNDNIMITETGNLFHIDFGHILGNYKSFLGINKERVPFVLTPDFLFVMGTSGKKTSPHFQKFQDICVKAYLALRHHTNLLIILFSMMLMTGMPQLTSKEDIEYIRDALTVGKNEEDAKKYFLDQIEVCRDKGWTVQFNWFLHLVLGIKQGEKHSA
Protocol: PI3K (p120γ) (h) [Non-Radioactive Assay]
as §7, with “(p120γ)” for “p110α/p85α”, “phosphatidylinositol-4,5-bisphosphate” for “phosphatidylinositol 4,5-bisphosphate”, “MgATP mix.” for “ATP solution.”, “streptavidin-allophycocyanin.” for “streptavidin allophycocyanin.”
as §6

[4] = human liver microsomes 0.5 mg protein/mL, compound 5 μM, NADPH, 37° C.

SMILES: COc1ncc(-c2ccn3ncc(C#CC(C)O)c3n2)cc1NS(=O)(=O)c1ccc(F)cc1F (centres unmarked) [Ex. 5, 2,4-difluoro-N-(5-(3-(3-hydroxybut-1-yn-1-yl)pyrazolo[1,5-a]pyrimidin-5-yl)-2-methoxypyridin-3-yl)benzenesulfonamide]
- half-life at 5 μM [1, 4]: 5.05 h
- CLint scaled at 5 μM [1]: 5.74 mL/min/kg
- half-life at 5 μM [2]: 3.61 h
- CLint scaled at 5 μM [2]: 11.5 mL/min/kg
- F ([3]; iv dose 2 mg/kg): 96.20%
- Cl/F ([3]; 2 mg/kg): 0.83 mL/min/kg
- AUC(0-t) ([3]; 2 mg/kg): 35200 ng·h/mL
- half-life ([3]; 2 mg/kg): 3 h
- Vd ([3]; 2 mg/kg): 0.2 L/kg
- pIC50 (mTOR (h)): 8.15
- pIC50 (PI3K p110α/p85α (h)): 8.52
- pIC50 (PI3K p110β/p85α (h)): 7.12
- pIC50 (PI3K (p110δ/p85α) (h)): 9.00
- pIC50 (PI3K (p120γ) (h)): 8.22

SMILES: COc1ncc(-c2ccn3ncc(C#N)c3c2)cc1NS(=O)(=O)CC(F)(F)F [Ex. 10, N-(5-(3-cyanopyrazolo[1,5-a]pyridin-5-yl)-2-methoxypyridin-3-yl)-2,2,2-trifluoroethanesulfonamide]
- half-life at 5 μM [1, 4]: 20.4 h
- CLint scaled at 5 μM [1]: 2.03 mL/min/kg
- T1/2 [2]: ∞
- F ([3]; iv dose 1 mg/kg): 112.95%
- Cl/F ([3]; 1 mg/kg): 12.7 mL/min/kg
- AUC(0-t) ([3]; 1 mg/kg): 1240 ng·h/mL
- half-life ([3]; 1 mg/kg): 2.74 h
- Vd ([3]; 1 mg/kg): 1.72 L/kg

SMILES: COc1ncc(-c2ccn3ncc(C#CC(C)(C)O)c3c2)cc1NS(=O)(=O)c1ccc(F)cc1F [Ex. 8, 2,4-difluoro-N-(5-(3-(3-hydroxy-3-methylbut-1-yn-1-yl)pyrazolo[1,5-a]pyridin-5-yl)-2-methoxypyridin-3-yl)benzenesulfonamide]
- half-life at 5 μM [1, 4]: 130 h
- CLint scaled at 5 μM [1]: 0.22 mL/min/kg
- half-life at 5 μM [2]: 21 h
- CLint scaled at 5 μM [2]: 1.97 mL/min/kg
- F ([3]; iv dose 1 mg/kg): 103.40%
- Cl/F ([3]; 1 mg/kg): 0.33 mL/min/kg
- AUC(0-t) ([3]; 1 mg/kg): 41800 ng·h/mL
- half-life ([3]; 1 mg/kg): 10.8 h
- Vd ([3]; 1 mg/kg): 0.28 L/kg

SMILES: COc1ncc(-c2ccn3ncc(C#CC(C)(C)O)c3n2)cc1NS(=O)(=O)c1ccc(F)cc1F [Ex. 6, 2,4-difluoro-N-(5-(3-(3-hydroxy-3-methylbut-1-yn-1-yl)pyrazolo[1,5-a]pyrimidin-5-yl)-2-methoxypyridin-3-yl)benzenesulfonamide]
- T1/2 [1, 4]: ∞
- T1/2 [2]: ∞
- F ([3]; iv dose 1 mg/kg): 50.80%
- Cl/F ([3]; 1 mg/kg): 0.33 mL/min/kg
- AUC(0-t) ([3]; 1 mg/kg): 40900 ng·h/mL
- half-life ([3]; 1 mg/kg): 11 h
- Vd ([3]; 1 mg/kg): 0.24 L/kg

SMILES: CC#Cc1cnn2ccc(-c3cnc(OC)c(NS(=O)(=O)c4ccc(F)cc4F)c3)nc12 [Ex. 7, 2,4-difluoro-N-(2-methoxy-5-(3-(prop-1-yn-1-yl)pyrazolo[1,5-a]pyrimidin-5-yl)pyridin-3-yl)benzenesulfonamide]
- half-life at 5 μM [1, 4]: 55.7 h
- CLint scaled at 5 μM [1]: 0.52 mL/min/kg
- half-life at 5 μM [2]: 1.54 h
- CLint scaled at 5 μM [2]: 26.9 mL/min/kg
- F ([3]; iv dose 1 mg/kg): 80.10%
- Cl/F ([3]; 1 mg/kg): 3.17 mL/min/kg
- AUC(0-t) ([3]; 1 mg/kg): 5330 ng·h/mL
- half-life ([3]; 1 mg/kg): 3.94 h
- Vd ([3]; 1 mg/kg): 0.63 L/kg
